# Measured values taken from BindingDB's records for doi:10.1016/0960-894X(96)00186-2 (1996).
# Key:
# [1] = Compound was tested for binding activity against Opioid receptor kappa 1 in bovine striatal membranes using 1 nM [3H]U-69593 as the radioligand.
# [2] = Compound was tested for binding activity against Opioid receptor delta 1 in bovine striatal membranes using 0.2 nM [3H]p-CI-DPDPE as the radioligand.
compound,measurement,setting,value
O=C(CSSCC(=O)N[C@@]12CCC(=O)[C@@H]3Oc4c(O)ccc5c4[C@@]31CCN(CC1CCC1)[C@@H]2C5)N[C@@]12CCC(=O)[C@@H]3Oc4c(O)ccc5c4[C@@]31CCN(CC1CCC1)[C@@H]2C5 [N-CBM-TAMO],IC50,[1],6.3 nM
same,IC50,[2],12 nM
